Experimental data published in patent US20110086096A1, “MODIFIED RELEASE 1- [ (3-HYDROXY-ADAMANT-1-YLAMINO)-ACETYL] -PYRROLIDINE-2 (S) -CARBONITRILE FORMULATION” (priority 2005, published 2011).

Columns and labels:
[1] = Drug substance and tablet retest date; assay type: physicochemical; conditions: drug substance, storage at 25° C.
Protocol: The vildagliptin drug substance (DS) is sensitive to moisture. Very tight packaging is necessary. Current retest date is 30 months with storage at 25° C.
For the CSF 100 mg, 150 mg and 200 mg strengths, the stability data are available up to 12 months at 25° C./60% RH and 30° 60% RH. […] The composition of vildagliptin 150 mg modified release tablets is bracketed by 100 mg and 200 mg strengths. Therefore, the stability of 150 mg tablets is expected to be same as 100 mg and 200 mg strengths. Thus a re-test period similar to that of 100 and 200 mg strengths is applied for 150 mg tablets.

[2] = Water solubility of drug substance; assay type: physicochemical; conditions: heading: water solubility
Excerpt: A once a day MR dosage form is likely to require a significant level of polymer load for retarding drug diffusion. During the development, the applicant has selected monolithic formulation with low risk for dose dumping, eliminating coating technologies in favor of a matrix formulation. After intensive studies on compatibility, ability to retard diffusion pharmacokinetic and pharmacodynamic studies, and regulatory acceptance requirements the applicant narrowed the polymer choice to hydrophilic polymers, especially hydroxpropyl methyl cellulose (HPMC).

N#C[C@@H]1CCCN1C(=O)CNC12CC3CC(CC(O)(C3)C1)C2 [vildagliptin, 1-[(3-Hydroxy-adamant-1-ylamino)-acetyl]-pyrrolidine-2(S)-carbonitrile]
retest date [1]: 30 months | solubility [2]: > 125 mg/mL
